≈ marks a conversion by molar mass, not a printed value. Read-outs that look alike come from different tables or passages of the source.

Here are results for five compounds from patent US10752647B2, “N-phosphonoxymethyl prodrugs of hydroxyalkyl thiadiazole derivatives” (DAIICHI SANKYO COMPANY, LIMITED, priority 2017, dated 2020).

The nature of series [1]: Conversion efficiency / PK profile after IV dose in rats (Compounds No. 5 and No. 7). Type of series: in vivo. Particulars: Rat, plasma, parent compound IV 1 mg/kg; read-out: Parent compound AUCinf. How it is done:
Determination of conversion efficiency of Compound No. 5 and Compound No. 7 was conducted in rats. Animals were divided in two groups with two animals in each group. One group received an IV dose of prodrug and the other group received an IV dose of parent compound. Serial blood sampling was carried out at 0.08, 0.25, 0.5, 1, 2, 4, 7, and 24 h post dose from both of the animal groups. Blood samples were centrifuged to harvest plasma. Plasma samples of prodrug administered animals were simultaneously analyzed for both analytes (prodrug and parent compound) using LC-MS/MS. AUC of plasma concentrations versus time profiles were calculated in WinNonlin software and percentage conversion efficiency was determined using the formula: Percentage conversion efficiency=(AUCiv of parent compound from prodrug administered samples)/(AUCiv of parent compound from parent compound administered samples)/(molecular weight of parent compound)×(molecular weight of prodrug)×100. PK profile of Compound No. 5 and Compound No. 7 in rats are depicted in Table 7.

Series [2] in a line: Solubility of parent compounds and prodrugs in phosphate buffer. The class given is physicochemical. Particulars: aqueous buffer, thermodynamic from solid; parent compound, phosphate buffer, 25° C., more than 4 weeks, pH 7.0. How it is done:
Parent compounds: About 5 mg of parent compounds (biologically active forms of prodrugs) were added to 950 μL of phosphate buffer, and mixed vigorously for 1 hour at 25° C. Then, these samples were stored at 25° C. for more than 4 weeks and filtered to remove undissolved parent compounds. Next, these solutions were diluted with 50% aqueous acetonitrile solution. The resulting test solutions were assayed by HPLC. Prodrugs: About 30 mg of prodrugs were added to 120 μL of phosphate buffer, and mixed vigorously for 1 hour at 25° C. After shaking, pH of these solutions were adjusted at pH 7.0 by 1 mol/L NaOH solution. Then, the total volume were adjusted to 280 μL with purified water. Next, these solutions were stored at 25° C. for more than 4 weeks and filtered to remove undissolved compounds. These solutions were diluted with 50% aqueous acetonitrile solution. The resulting test solutions were assayed by HPLC.

In series [3] the test system is animal infection models. Particulars: compound of WO 2009/084614; cited from earlier work.
Series [4] has as its system VRE IV258 21076. Kind of series: Neutropenic mouse thigh infection model, VRE IV258 21076. Type of series: in vivo, Enterococcus. How it is done:
(§1) (b) Method for Testing Therapeutic Effect of Compounds Against MRSA 02541 and VRE IV258 21076 Using Neutropenic Mouse Thigh Infection Model
(§2) Swiss Webster mice of 4 to 6-week-old were used for this experiments (Vivo Biotech Limited, Hyderabad, India, n=5 mice per group). Mice were rendered neutropenic as described above. Overnight grown culture of MRSA 02541 on Mueller-Hinton broth (MHB) was adjusted to 0.5 Mac Farland. The suspension was then diluted 1:100 in fresh MHB and 100 μl was injected intra-muscularly in the right thigh muscles of the mice (n=5/group). In case of VRE IV 258-21076 culture was mixed with 10% hog mucin in 1:1 proportion. The bacterial inocula were confirmed by quantitative culture analyses and found to be 3×10^6 CFU for MRSA and 2×10^6 for VRE IV258-21076 per mL. Treatment started 2 h post infection. The test compound was administered to the mice one to eight times at an interval of 3 to 24 hr. The number of bacteria in the thigh muscle was counted for the non-treated group immediately before initial administration of the test compound (pre-control), for the non-treated group (post-control) and for the test compound-administered group on the next day of administration of the test compound and infection. A change in the number of bacteria in the thigh was used as an index of therapeutic effect.

Series [5] concerns Clostridium difficile 2009155, a NAP1/027 strain. Kind of series: Hamster CDI model. The class given is in vivo. Particulars: 0.3 mg/kg/day for 5 days. The procedure:
d) Method for Testing Therapeutic Effect of Compounds in Hamster CDI Model
The in vivo efficacy of Compound No. 1 was evaluated in a hamster CDI model caused by Clostridium difficile 2009155, a NAP1/027 strain. The Syrian hamsters (7-9 weeks old, National Centre for Laboratory Animal Sciences, National Institute Nutrition, Hyderabad, India.) were acclimatized at least 7 days prior the experiment. Hamsters primed with a single subcutaneous injection of clindamycin (30 mg/kg) 1 day prior to infection. Hamsters were infected by oral gavage with 1 mL of spore suspension (2-3×10^5) prepared in PBS. The test compounds were prepared using the 0.25 w/v % Methyl Cellulose Solution for oral administration and 10% HP ß-CD for SC administration and treatment was started 6 h post infection at an interval of 24 h for 5 days. Hamsters were administered a dose of 0.03-0.3 mg/kg/day for 5 days. The death and survival time of the hamsters treated with test compound administered group and non-treated group (vehicle-control) were recorded once daily for 35 days and were compared. A change in the survival time was used as an index of therapeutic effect.

A short description of series [6]: Conversion efficiency / PK profile after IV dose in rats (Compounds No. 1 and No. 2). Type of series: in vivo. Particulars: 15.3 mg/kg; Rat, plasma, prodrug IV 15.300 mg/kg, analyte prodrug; read-out: Compound No. 1 AUCinf. The procedure:
Method of Testing Conversion Efficiency Determination of conversion efficiency of Compound No. 1 and Compound No. 2 was conducted in rodents (mice and rats) and non-rodents (monkeys and dogs). Animals were divided in two groups with two animals in each group. One group received an intravenous (IV) dose of prodrug and the other group received an IV dose of parent compound. The dose of prodrug was taken as molar equivalent dose of parent compound. Serial blood sampling was carried out at 0.083, 0.33, 1, 2, 4, 8 and 24 h post IV dose from both the animal groups. Blood samples were centrifuged to harvest plasma. Plasma samples were stored at −80° C. until analysis. Plasma samples of prodrug administered animals were simultaneously analyzed for both analytes (prodrug and parent compound) using LC-MS/MS. Area under the curve (AUC) of plasma concentrations versus time profiles were calculated in WinNonlin software and percentage conversion efficiency was determined using the formula: Percentage conversion efficiency=(AUCiv of parent compound (from prodrug administered samples)×100/(AUCiv of parent compound (from parent compound administered samples). PK profile of Compounds No. 1 and No. 2 in rats, dogs and monkeys are depicted in Table 5 and 6, respectively (also shown in FIGS. 1 and 2).

Series [7] deals with MRSA 02541. Put plainly: Neutropenic Sprague Dawley rat thigh infection model, MRSA 02541. The class given is in vivo, Staphylococcus aureus. Particulars: for log10 kill (number of bacteria in the thigh): 25 mg/kg, IV qid. How it is done:
c) Method for Testing Therapeutic Effect of Compounds Against MRSA 02541 Using Neutropenic Sprague Dawley Rat Thigh Infection Model
Sprague Dawley rats of 4 to 6-week-old were used for this experiments (Vivo Biotech Limited, Hyderabad, India, n=4 rats per group). Rats were rendered neutropenic by intraperitoneal injection of cyclophosphamide. Overnight grown culture of MRSA 02541 in MHB was adjusted to 0.5 Mac Farland. The suspension was then diluted 1:10 in fresh MHB and 200 μl was injected intra-muscularly in the right thigh muscles of the rat. The bacterial inocula were confirmed by quantitative culture analyses and found to be 6×10^6 CFU per rat thigh muscle. Treatment started 2 h post infection. The test compound was administered to the rat four times at an interval of 6 hr. The number of bacteria in the thigh muscle was counted for the non-treated group immediately before initial administration of the test compound (2 h pre-control), for the non-treated group (26 h post-control) and for the test compound-administered group on the next day of administration of the test compound and infection. A change in the number of bacteria in the thigh was used as an index of therapeutic effect.

For series [8], the system named is MRSA 562. Put plainly: Mouse lung infection model by MRSA 562 (neutropenic Swiss mice). Type of series: in vivo, Staphylococcus aureus. The procedure:
a) Method for Testing Therapeutic Effect of Compounds Using Mouse Lung Infection Model by MRSA 562
Mice were rendered neutropenic with two intra-peritoneal injections (IP) of cyclophosphamide on day −4 and day −1 prior to infection at the dose rate of 150 mg and 100 mg per kg body weight. Overnight grown MRSA 562 was diluted 1:10 in fresh Brain Heart Infusion broth and mixed 1:1 with 5% hog mucin. The bacterial suspension (3.16×10^6/mouce/50 μL) was then inoculated to each pre-anaesthetized mice (xylazine 5 mg/kg and ketamine 100 mg/kg mixture) into the nares of Swiss mice (4 to 6-week-old, Vivo Biotech Limited, Hyderabad, India), n=5 mice per group). The test compound was administered to the mice once, twice and four times at an interval of 24, 12 and 6 hr, respectively. The number of bacteria in the lungs was determined in the non-treated group immediately before initial administration of the test compound (pre-control) and in the non-treated group (post-control) and the test compound-administered group on the next day of administration of the test compound and infection. A change in the number of bacteria in the lungs was used as an index of therapeutic effect.

Series [9] is described as follows: Solubility in Japanese Pharmacopeia First Fluid (JP1) and Second Fluid (JP2). The class given is physicochemical. The settings on record: thermodynamic from solid, room temperature. How it is done:
Method of Testing Solubility in Water and Neutral Buffer A 10 mmol/L solution of the test compound was prepared in DMSO and dispensed 100 μL of 10 mmol/L DMSO stock solutions into labeled glass tubes in duplicate, one for Japanese Pharmacopeia First Fluid (JP1) and second for Japanese Pharmacopeia Second Fluid (JP2). After evaporation of DMSO from each tube, 500 μL of JP1 and JP2 fluid were added in each tube, respectively. These tubes were sonicated for 1 minute and placed on shaker for 30 minutes with an interval of 30 seconds at every 5 minute. Tubes were placed in dark at room temperature for 1 hour and solution was filtered through membrane filter. The filtrate was diluted 2-fold and 10-fold. The resulting test solutions was analyzed and quantified against the standards using UPLC (standard preparation-10 mmol/L solution in DMSO is serially diluted with 50% aqueous acetonitrile solution to prepare 2 solutions; 100 μmol/L standard solution and 5 μmol/L standard solutions).

Series [10] deals with MRSA 02541. Put plainly: Neutropenic mouse thigh infection model, MRSA 02541. Type of series: in vivo, Staphylococcus aureus. The procedure:
as §1, §2

Series [11] can be described thus: Solubility of parent compounds and prodrugs in phosphate buffer. The class given is physicochemical. The settings on record: aqueous buffer, thermodynamic from solid; prodrug, phosphate buffer adjusted with NaOH, 25° C., more than 4 weeks, pH 7.2.

As to `CCc1[nH]c(C(=O)N[C@@H]2CCN(c3nnc([C@H](O)CO)s3)C[C@@H]2OC)nc1Cl` [Compound C, 4-chloro-N-[(3S,4R)-1-{5-[(1R)-1,2-dihydroxyethyl]-1,3,4-thiadiazol-2-yl}-3-methoxypiperidin-4-yl]-5-ethyl-1H-imidazole-2-carboxamide], the AUC(0-inf) in [1] amounted to 990 ng·h/mL. Moreover, the solubility in series [2] was 2440 µg/mL (≈ 5.67 mM).
`CCO[C@H]1CN(c2nncs2)CC[C@H]1NC(=O)c1nc(Cl)c(CC)[nH]1` [Compound No. 150]: in series [3], the “Efficacy in animal infection models” value is “not being efficacious”.
On to `CCc1c(Cl)nc(C(=O)N[C@@H]2CCN(c3nnc(C(C)(C)O)s3)C[C@@H]2OC)n1COP(=O)(O)O` [Compound No. 1, [4-Chloro-5-ethyl-2-({(3S,4R)-1-[5-(2-hydroxypropan-2-yl)-1,3,4-thiadiazol-2-yl]-3-methoxypiperidin-4-yl}carbamoyl)-1H-imidazol-1-yl]methyl dihydrogen phosphate], for which the “Cidal potential (number of bacteria in the thigh)” value in series [4] (fractionated doses 50 mg/kg/dose q12h, 25 mg/kg/dose q6h, 12.5 mg/kg/dose q3h) is “cidal potential”; in [10] (200 mg/kg/dose q24h, 100 mg/kg/dose q24h, and 50 mg/kg/dose q24h and their fractions irrespective of dosing schedule), “cidal potential”. In addition, the “Therapeutic effect (change in the number of bacteria in the thigh)” value in series [4] (neutropenic mouse thigh, VRE IV258 21076) was “exhibited the therapeutic effect”; in series [7] (neutropenic rat thigh, MRSA 02541), “exhibited the therapeutic effect”; in [10] (neutropenic mouse thigh, MRSA 02541), “exhibited the therapeutic effect”. For the same compound, the “Survival on day 35” value in [5] is 100%. In addition, the AUC(0-inf) in [6] was 270 ng·h/mL. Further, the results for the “log10 kill (number of bacteria in the thigh)” value in [7] (compared to 2 hours pre-control) and in series [7] (compared to 26 hours post control) were 1 log10 and 2.99 log10, respectively. Further, the “log10 kill (number of bacteria in the lungs)” value in series [8] (6.25 mg/kg/dose, SC q6h, compared to 1 hour pre-control) was 1.33 log10; in series [8] (6.25 mg/kg/dose, SC q6h, compared to 25 hour post control), 2.52 log10; in [8] (12.5 mg/kg/dose, SC, q6h, compared to 1 hour pre-control) it was 1.76 log10; in [8] (12.5 mg/kg/dose, SC, q6h, compared to 25 hour post control), 2.95 log10. The “Therapeutic effect (change in the number of bacteria in the lungs)” value in series [8] (mouse lung infection, MRSA 562) is reported as “exhibited the therapeutic effect”. Besides, the solubility at 30 min in series [9] (pH 1.2, simulated gastric fluid, Japanese Pharmacopeia First Fluid (JP1), read-out: Solubility JP1) is greater than 1280 µg/mL; in series [9] (pH 6.8, aqueous buffer, Japanese Pharmacopeia Second Fluid (JP2), read-out: Solubility JP2), greater than 1320 µg/mL.
Consider `CCc1c(Cl)nc(C(=O)N[C@@H]2CCN(c3nnc([C@@H](O)CO)s3)C[C@@H]2OC)n1COP(=O)(O)O` [Compound No. 9, [4-Chloro-2-({(3S,4R)-1-[5-(1,2-dihydroxyethyl)-1,3,4-thiadiazol-2-yl]-3-methoxypiperidin-4-yl}carbamoyl)-5-ethyl-1H-imidazol-1-yl]methyl dihydrogen phosphate], for which, in [11], the solubility was determined as 102000 µg/mL.
As for `CCc1[nH]c(C(=O)N[C@@H]2CCN(c3nnc(C(C)O)s3)C[C@@H]2OC)nc1Cl` (stereo partly drawn) [Compound D, 4-chloro-5-ethyl-N-{(3S,4R)-1-[5-(1-hydroxyethyl)-1,3,4-thiadiazol-2-yl]-3-methoxypiperidin-4-yl}-1H-imidazole-2-carboxamide], the AUC(0-inf) in series [1] is 3110 ng·h/mL. In addition, the solubility in [2] was 752 µg/mL (≈ 1.81 mM).
